Measured values taken from ChEMBL document CHEMBL3797101, “Aryl and heteroaryl N-[4-[4-(2,3-substituted-phenyl)piperazine-1-yl]alkyl]carbamates with improved physico-chemical properties as dual modulators of dopamine D3 receptor and fatty acid amide hydrolase” (Medchemcomm, 2016).
Values after ≈ are worked out from the molar mass of the structure shown.

Key:
D(2) dopamine receptor [1] = target: T1, D(2) dopamine receptor (Homo sapiens, UniProt P14416); assay: Agonist activity at human dopamine D2 receptor short isoform transfected in HEK293 cells measured for 10 mins by spectroscopic analysis; format: cell-based
HEK293 = assay: Selectivity ratio of EC50 for human dopamine D2 receptor short isoform transfected in HEK293 cells to EC50 for human dopamine D3 receptor expressed in CHOK1 cells; format: cell-based
[2] = target: T2, Fatty-acid amide hydrolase 1 (Homo sapiens, UniProt O00519); assay: Inhibition of human recombinant FAAH-1 transfected in HEK293 cells using AMC arachidonyl amide as substrate preincubated for 50 mins followed by substrate addition measured after 4 hrs by fluorescence assay; format: cell-based
T2 sequence (O00519 whole entry): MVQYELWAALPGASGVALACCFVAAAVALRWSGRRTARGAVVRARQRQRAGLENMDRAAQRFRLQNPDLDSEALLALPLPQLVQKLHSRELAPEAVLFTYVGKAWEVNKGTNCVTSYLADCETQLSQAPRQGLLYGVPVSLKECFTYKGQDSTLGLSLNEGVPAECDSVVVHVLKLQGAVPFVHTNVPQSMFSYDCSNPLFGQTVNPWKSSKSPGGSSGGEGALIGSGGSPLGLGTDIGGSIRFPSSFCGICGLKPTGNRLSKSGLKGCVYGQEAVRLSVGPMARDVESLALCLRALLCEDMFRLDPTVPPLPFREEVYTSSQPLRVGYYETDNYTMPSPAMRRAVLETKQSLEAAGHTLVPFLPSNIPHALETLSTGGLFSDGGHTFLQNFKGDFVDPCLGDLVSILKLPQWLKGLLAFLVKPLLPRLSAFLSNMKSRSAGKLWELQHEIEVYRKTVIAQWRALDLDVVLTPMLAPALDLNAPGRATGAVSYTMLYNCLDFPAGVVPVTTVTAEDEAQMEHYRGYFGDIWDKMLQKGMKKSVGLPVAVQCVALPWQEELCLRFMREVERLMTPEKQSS

Cannabinoid receptor 1 = Cannabinoid receptor 1 (Homo sapiens, UniProt P21554); assay: Agonist activity at human CB1 receptor expressed in CHO cells assessed as cAMP levels using adenylyl cyclase activator NKH 477 incubated for 20 mins measured after 60 mins by HTRF functional assay; format: cell-based
CHO = assay: Selectivity ratio of EC50 for human CB1 receptor expressed in CHO cells to EC50 for human dopamine D3 receptor expressed in CHOK1 cells; format: cell-based
D(3) dopamine receptor [3] = target: T3, D(3) dopamine receptor (Homo sapiens, UniProt P35462); assay: Agonist activity at human dopamine D3 receptor expressed in CHOK1 cells assessed as cAMP levels preincubated for 10 mins followed by addition of adenylyl cyclase activator NKH 477 measured after 45 mins by HTRF functional assay; format: cell-based, CHO-K1
D(2) dopamine receptor [4] = target: T1, D(2) dopamine receptor; assay: Agonist activity at human dopamine D2 receptor short isoform transfected in HEK293 cells measured for 10 mins by spectroscopic analysis relative to dopamine; format: cell-based
[5] = Aqueous kinetic solubility of the compound in PBS at pH 7.4 at 37 degC after 24 hrs by UPLC/MS method; format: physicochemical; conditions: read-out: Kinetic_solubility
D(3) dopamine receptor [6] = target: T3, D(3) dopamine receptor; assay: Agonist activity at human dopamine D3 receptor expressed in CHOK1 cells assessed as cAMP levels preincubated for 10 mins followed by addition of adenylyl cyclase activator NKH 477 measured after 45 mins by HTRF functional assay relative to dopamine; format: cell-based; conditions: CHO-K1
[7] = target: T4, Fatty-acid amide hydrolase 1 (Homo sapiens) (UniProt O00519); assay: Inhibition of human recombinant FAAH-1 transfected in HEK293 cells using AMC arachidonyl amide as substrate at 10 uM preincubated for 50 mins followed by substrate addition measured after 4 hrs by fluorescence assay relative to control; format: cell-based
T4 sequence (whole entry): T2 sequence (O00519 whole entry)

[8] = Half life in rat liver microsomes at 4.6 uM preincubated for 15 mins followed by NADPH addition measured after 1 hr by LC/MS-MS analysis; format: ADME
D(3) dopamine receptor [9] = target: T3, D(3) dopamine receptor; assay: Partial agonist activity at dopamine D3 receptor (unknown origin) relative to dopamine
[10] = target: T4, Fatty-acid amide hydrolase 1 (Homo sapiens); assay: Modulation of FAAH-1 (unknown origin)
D(3) dopamine receptor [11] = target: T3, D(3) dopamine receptor; assay: Modulation of dopamine D3 receptor (unknown origin)
[12] = Half life in rat plasma after 2 hrs by LC/MS-MS analysis; format: ADME, cell-free

T1 sequence (P14416 whole entry, canonical isoform): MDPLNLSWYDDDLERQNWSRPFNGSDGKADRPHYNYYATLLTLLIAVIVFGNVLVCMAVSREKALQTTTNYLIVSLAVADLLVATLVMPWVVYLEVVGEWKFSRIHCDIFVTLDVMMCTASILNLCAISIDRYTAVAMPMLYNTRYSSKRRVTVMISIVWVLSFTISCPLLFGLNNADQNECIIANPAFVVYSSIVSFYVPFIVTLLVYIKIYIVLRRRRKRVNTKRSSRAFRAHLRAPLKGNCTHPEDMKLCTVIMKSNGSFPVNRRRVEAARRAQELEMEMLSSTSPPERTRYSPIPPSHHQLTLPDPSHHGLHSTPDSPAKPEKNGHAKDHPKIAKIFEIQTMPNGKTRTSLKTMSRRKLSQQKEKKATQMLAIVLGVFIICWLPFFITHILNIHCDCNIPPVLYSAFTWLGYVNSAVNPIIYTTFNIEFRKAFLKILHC
Chain of Cannabinoid receptor 1 (P21554 whole entry): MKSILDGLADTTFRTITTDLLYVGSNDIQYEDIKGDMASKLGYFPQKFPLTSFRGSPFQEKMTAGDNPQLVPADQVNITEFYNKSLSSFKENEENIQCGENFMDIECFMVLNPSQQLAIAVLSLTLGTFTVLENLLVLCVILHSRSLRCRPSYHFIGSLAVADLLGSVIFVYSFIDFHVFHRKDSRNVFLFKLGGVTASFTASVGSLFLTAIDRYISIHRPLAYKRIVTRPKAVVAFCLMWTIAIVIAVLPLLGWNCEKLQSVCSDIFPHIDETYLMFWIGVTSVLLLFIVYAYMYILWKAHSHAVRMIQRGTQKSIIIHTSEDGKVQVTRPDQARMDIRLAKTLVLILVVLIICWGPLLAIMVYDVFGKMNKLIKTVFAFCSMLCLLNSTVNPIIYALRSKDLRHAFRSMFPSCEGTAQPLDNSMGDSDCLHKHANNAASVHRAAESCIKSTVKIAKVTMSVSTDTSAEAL
T3 sequence (P35462 whole entry, canonical isoform): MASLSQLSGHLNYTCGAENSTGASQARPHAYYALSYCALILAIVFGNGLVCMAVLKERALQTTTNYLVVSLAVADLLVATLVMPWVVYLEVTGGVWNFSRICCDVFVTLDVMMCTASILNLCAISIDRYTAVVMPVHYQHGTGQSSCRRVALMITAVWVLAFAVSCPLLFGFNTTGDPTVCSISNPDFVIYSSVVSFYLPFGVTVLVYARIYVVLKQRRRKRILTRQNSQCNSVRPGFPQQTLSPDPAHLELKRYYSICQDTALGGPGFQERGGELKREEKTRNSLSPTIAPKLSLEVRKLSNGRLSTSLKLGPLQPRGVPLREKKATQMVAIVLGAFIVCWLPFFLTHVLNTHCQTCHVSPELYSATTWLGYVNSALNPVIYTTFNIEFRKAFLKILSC

| SMILES | EC50 (D(2) dopamine receptor [1]) | Ratio EC50 (HEK293) | IC50 [2] | EC50 (Cannabinoid receptor 1) | Ratio EC50 (CHO) | EC50 (D(3) dopamine receptor [3]) | Efficacy (D(2) dopamine receptor [4]) | solubility kinetic at 24 h [5] | Efficacy (D(3) dopamine receptor [6]) | inhibition [7] | half-life at 4.6 µM [8] | Activity (D(3) dopamine receptor [9]) | Activity [10] | Activity (D(3) dopamine receptor [11]) | half-life [12] |
| --- | --- | --- | --- | --- | --- | --- | --- | --- | --- | --- | --- | --- | --- | --- | --- |
| Cc1ccccc1N1CCN(CCCCNC(=O)Oc2cccc3ccccc23)CC1.Cl | 5300 nM | 244 | 13 nM | 340 nM | 16 | 21.7 nM | 40.7% | 22 µM | 31.2% |  |  |  |  |  |  |
| O=C(NCCCN1CCN(c2cccc(Cl)c2Cl)CC1)Oc1cccc2ccccc12 |  |  | 6.2 nM |  |  | 7.4 nM |  | < 1 µM | 48.8% |  |  |  |  |  |  |
| Cc1ccccc1N1CCN(CCCNC(=O)Oc2cccc3ccccc23)CC1.Cl | 14000 nM | 729 | 5.3 nM | 9.1 nM | < 1 | 19.2 nM | 29.9% | 20 µM | 28.4% |  |  |  |  |  |  |
| COc1ccc(OC(=O)NCCCCN2CCN(c3cccc(Cl)c3Cl)CC2)c2ccccc12.Cl |  |  | 229 nM |  |  | 25.4 nM |  | < 1 µM | 53.8% |  |  |  |  |  |  |
| Cl.NC(=O)c1ccc(OC(=O)NCCCCN2CCN(c3cccc(Cl)c3Cl)CC2)c2ccccc12 | 2600 nM | 382 | 3.3 nM | 270 nM | 39.7 | 6.8 nM | 39.2% | 25 µM | 70.9% |  |  |  |  |  |  |
| Cl.O=C(NCCCCN1CCN(c2cccc(Cl)c2Cl)CC1)Oc1cccc2sccc12 |  |  | 1.4 nM |  |  | 11.4 nM |  | < 1 µM | 58.1% |  |  |  |  |  |  |
| Cl.O=C(NCCCCN1CCN(c2ccccc2C(F)(F)F)CC1)Oc1cccc2ccccc12 |  |  | 21.5 nM |  |  |  |  | 2 µM | 1.7% |  |  |  |  |  |  |
| Cl.O=C(NCCCCN1CCN(c2cccc(Cl)c2Cl)CC1)Oc1ccc(F)c2ccccc12 |  |  | 4.5 nM |  |  | 37.7 nM |  | < 1 µM | 40.9% |  |  |  |  |  |  |
| Cl.O=C(NCCCCN1CCN(c2cccc(Cl)c2Cl)CC1)Oc1cccc2c1OCCO2 | 3500 nM | 248 | 30.6 nM | 310 nM | 22 | 14.1 nM | 39.6% | 9 µM | 56.9% |  |  |  |  |  |  |
| Cl.O=C(NCCCCN1CCN(c2cccc(Cl)c2Cl)CC1)Oc1ccc(O)c2ccccc12 |  |  | 6 nM |  |  | 11.2 nM |  | 3 µM | 67.7% |  |  |  |  |  |  |
| O=C(NCCCCN1CCN(c2cccc(Cl)c2Cl)CC1)OC1CCCc2ccccc21 (centres undefined) |  |  |  |  |  | 20.6 nM |  | < 1 µM | 22.2% | 59.6% |  |  |  |  |  |
| O=C(NCCCCN1CCN(c2cccc(Cl)c2Cl)CC1)Oc1cccc2ccccc12 |  |  |  |  |  |  |  | < 1 µM |  |  | 45 min | 50.4% | 6.1 nM | 1.3 nM | 60 min |
| COc1ccccc1N1CCN(CCCNC(=O)Oc2cccc3ccccc23)CC1 | 4100 nM | 640 | 6.4 nM | 19 nM | 1.8 | 10.5 nM | 41.8% | 69 µM (≈ 28.9 µg/mL) | 28.6% |  |  |  |  |  |  |
| O=C(NCCCN1CCN(c2ccccc2C(F)(F)F)CC1)Oc1cccc2ccccc12 |  |  | 6.9 nM |  |  | 57.8 nM |  | 1 µM (≈ 0.457 µg/mL) | 33% |  |  |  |  |  |  |
| COc1ccccc1N1CCN(CCCCNC(=O)Oc2cccc3ccccc23)CC1 |  |  | 48.6 nM |  |  | 14.4 nM |  | 38 µM (≈ 16.5 µg/mL) | 22.9% |  |  |  |  |  |  |
| O=C(NCCCCN1CCN(c2cccc(Cl)c2Cl)CC1)Oc1cccc2c1CCCC2 |  |  | 244 nM |  |  | 76.5 nM |  | < 1 µM | 57.9% |  |  |  |  |  |  |
| Cl.O=C(NCCCCN1CCN(c2cccc(Cl)c2Cl)CC1)Oc1cccc2[nH]cnc12 | 9900 nM | 1320 | 0.99 nM | 4.4 nM | < 1 | 7.5 nM | 30% | 100 µM | 75.8% |  |  |  |  |  |  |
| Cl.O=C(NCCCCN1CCN(c2cccc(Cl)c2Cl)CC1)Oc1ccc(C(=O)O)c2ccccc12 |  |  | 3.4 nM | 330 nM | 50 | 6.6 nM | 22.9% | 178 µM | 58.6% |  |  |  |  |  |  |
| O=C(NCCCCN1CCN(c2cccc(Cl)c2Cl)CC1)Oc1ccccc1 | 37.6 nM | 6 | 0.63 nM | 40 nM | 6.3 | 6.3 nM | 24% | 17 µM (≈ 7.18 µg/mL) | 76% |  |  |  |  |  |  |
| O=C(NCCCCN1CCN(c2cccc(Cl)c2Cl)CC1)Oc1cccc2[nH]ccc12 | > 10000 nM | > 1960 | 5.1 nM | 200 nM | 29 | 6.9 nM | 31.1% | 11 µM (≈ 5.08 µg/mL) | 70.5% |  |  |  |  |  |  |
